Data reported in patent US20230183215A1, “Notch Inhibitors and Uses Thereof” (StemSynergy Therapeutics, Inc., priority 2020, published 2023).
Where a name gives a salt, the structure may show the parent alone.

How the values were obtained:
[1] = molecular target: T1, Notch1 (Homo sapiens, UniProt P46531); experiment: Notch1 Reporter Assay (CSL-responsive luciferase, doxycycline-induced Notch-ICD in 293A cells); format: cell-based; conditions: 25 ng/mL Dox, 24 h, luciferase normalized to cell viability
T1 construct: pLV[Tet]-Puro-TRE3G>Notch1-ICD; expressed in transfected cells; host or cells: 293A cells
T1 sequence (P46531 1754-2555 limits assumed): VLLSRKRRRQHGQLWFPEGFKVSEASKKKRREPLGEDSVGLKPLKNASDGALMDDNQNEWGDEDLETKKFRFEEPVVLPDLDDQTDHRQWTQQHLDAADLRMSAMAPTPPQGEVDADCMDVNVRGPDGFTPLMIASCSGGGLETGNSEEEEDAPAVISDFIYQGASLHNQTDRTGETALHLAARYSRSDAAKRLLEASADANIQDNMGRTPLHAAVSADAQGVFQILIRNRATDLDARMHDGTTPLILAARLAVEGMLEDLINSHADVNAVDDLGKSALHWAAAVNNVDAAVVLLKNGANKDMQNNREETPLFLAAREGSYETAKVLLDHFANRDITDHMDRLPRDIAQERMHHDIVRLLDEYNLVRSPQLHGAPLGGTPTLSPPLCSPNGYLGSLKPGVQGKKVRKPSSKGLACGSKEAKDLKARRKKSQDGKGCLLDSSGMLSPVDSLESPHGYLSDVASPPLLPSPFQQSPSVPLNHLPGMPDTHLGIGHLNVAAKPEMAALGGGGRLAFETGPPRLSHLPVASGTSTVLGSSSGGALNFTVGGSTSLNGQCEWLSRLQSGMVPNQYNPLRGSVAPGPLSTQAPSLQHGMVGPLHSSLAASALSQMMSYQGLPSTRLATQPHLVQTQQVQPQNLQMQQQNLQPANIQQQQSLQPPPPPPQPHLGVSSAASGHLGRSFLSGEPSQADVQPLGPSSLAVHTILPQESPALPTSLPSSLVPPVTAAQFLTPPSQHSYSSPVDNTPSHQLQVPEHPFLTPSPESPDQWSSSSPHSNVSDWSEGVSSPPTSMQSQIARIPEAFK
Protocol: 293A cells expressing 1) pCMV-Tet-On 3G, 2) pLV[Tet]-Puro-TRE3G>Notch1-ICD, 3) pLV[Tet]-Puro-TRE3G>Notch2-ICD, 4) pLV[Tet]-Puro-TRE3G>Notch3-ICD, and 5) pCSL-RElement-Luc were used. When Doxycycline is added, the Tet-ON gene activates expression of hNotch1ICD, which together with endogenous NTC components binds to CSL responsive elements (pCSL-RElement-Luc) and expresses luciferase. 1×10^4 cells are plated in 100 μL (96-well format). 24 h later, compounds (10 mM stock in DMSO) are diluted in DMSO to 200×, then added (5 ul into 1 mL) to cell culture media containing 50 ng/mL Dox. This is then added 1:1 to cells. Final DMSO=0.25%, Dox=25 ng/mL. After 24 h, media is discarded, and cells are lysed in passive lysis buffer (Promega). Cells are rocked at room temperature for 15 min and then lysate is divided for luciferase assay (Luciferase Assay System, Promega) and cell viability (CellTiter Glo 2.0, Promega). Raw luciferase is normalized to cell viability, and then scaled to DMSO wells. Results are analyzed and IC50's are determined in GraphPad by nonlinear regression curve fitting (4 parameter) of dose response curves.

[2] = test system: OE33 Esophageal Adenocarcinoma cell line; experiment: OE33 Colony Formation Assay; format: cell-based; conditions: Homo sapiens, 200 cells/well, compound every 48 hours for 7 days, CellTiter-Glo
Protocol: OE33 Colony Formation Assay:
The OE33 Esophageal Adenocarcinoma cell line was cultured and plated into 96-well tissue culture plates under sparse conditions (200 cells/well). Test compounds were serially diluted in DMSO and then into culture media (final DMSO concentration=0.1%). Compound/media was then added to cells every 48 hours for a total of 7 days. Clonogenic growth was assessed using the CellTiter-Glo reagent, according to manufacturer (Promega) specifications. Percent inhibition was calculated as the percent of luminescence normalized to control (0.1% DMSO) wells. Nonlinear regression curve fitting was performed using GraphPad Prism software to determine EC50's.

EC50 [2]	SMILES	IC50 [1]
1.2 µM	COc1cc(-c2cc(C(F)(F)F)cc3c2n(C)c(=O)n3CC(=O)N(C)c2ccc(C(F)(F)F)cc2)cc(F)c1OCc1nnc[nH]1 [compound 439, 2-(4-(4-((4H-1,2,4-triazol-3-yl)methoxy)-3-fluoro-5-methoxyphenyl)-3-methyl-2-oxo-6-(trifluoromethyl)-2,3-dihydro-1H-benzo[d]imidazol-1-yl)-N-methyl-N-(4-(trifluoromethyl)phenyl)acetamide hydrochloride]	3.5 µM
1.5 µM	COc1cc(-c2cc(C(F)(F)F)cc3c2n(C)c(=O)n3CC(=O)Nc2cccc(C(F)(F)F)c2)cc(F)c1OCc1nnc[nH]1 [SSTN-495, 2-(4-(4-((4H-1,2,4-triazol-3-yl)methoxy)-3-fluoro-5-methoxyphenyl)-3-methyl-2-oxo-6-(trifluoromethyl)-2,3-dihydro-1H-benzo[d]imidazol-1-yl)-N-(3-(trifluoromethyl)phenyl)acetamide hydrochloride]	4.3 µM
1.7 µM	COc1cc(-c2cc(C(F)(F)F)cc3c2n(C)c(=O)n3CC(=O)Nc2cccc(C3CC3)c2)cc(F)c1OCc1nnc[nH]1 [SSTN-547, 2-(4-(4-((4H-1,2,4-triazol-3-yl)methoxy)-3-fluoro-5-methoxyphenyl)-3-methyl-2-oxo-6-(trifluoromethyl)-2,3-dihydro-1H-benzo[d]imidazol-1-yl)-N-(3-cyclopropylphenyl)acetamide]	5.9 µM
7.1 µM	COc1cc(-c2cc(Cl)cc3c2n(C)c(=O)n3CC(=O)Nc2ccc(F)cc2)cc(F)c1OCc1nnc[nH]1 [SSTN-601, 2-(4-(4-((4H-1,2,4-triazol-3-yl)methoxy)-3-fluoro-5-methoxyphenyl)-6-chloro-3-methyl-2-oxo-2,3-dihydro-1H-benzo[d]imidazol-1-yl)-N-(4-fluorophenyl)acetamide]	10.2 µM
6.6 µM	COc1cccc(NC(=O)Cn2c(=O)n(C)c3c(-c4cc(F)c(OCc5nnc[nH]5)c(OC)c4)cc(C(F)(F)F)cc32)c1 [SSTN-492, 2-(4-(4-((4H-1,2,4-triazol-3-yl)methoxy)-3-fluoro-5-methoxyphenyl)-3-methyl-2-oxo-6-(trifluoromethyl)-2,3-dihydro-1H-benzo[d]imidazol-1-yl)-N-(3-methoxyphenyl)acetamide hydrochloride]	6.3 µM
1.7 µM	COc1cc(-c2cc(C(F)(F)F)cc3c2n(C)c(=O)n3CC(=O)N(c2ccc(F)cc2)C(C)C)cc(F)c1OCc1nnc[nH]1 [SSTN-542, 2-(4-(4-((4H-1,2,4-triazol-3-yl)methoxy)-3-fluoro-5-methoxyphenyl)-3-methyl-2-oxo-6-(trifluoromethyl)-2,3-dihydro-1H-benzo[d]imidazol-1-yl)-N-(4-fluorophenyl)-N-isopropylacetamide]	3.8 µM
1.4 µM	COc1cc(-c2cc(C(F)(F)F)cc3c2n(C)c(=O)n3CC(=O)N(C)c2ccc(Cl)cc2)cc(F)c1OCc1nnc[nH]1 [compound 424, 2-(4-(4-((4H-1,2,4-triazol-3-yl)methoxy)-3-fluoro-5-methoxyphenyl)-3-methyl-2-oxo-6-(trifluoromethyl)-2,3-dihydro-1H-benzo[d]imidazol-1-yl)-N-(4-chlorophenyl)-N-methylacetamide hydrochloride]	3.6 µM
3.8 µM	COc1cc(-c2cc(C(F)(F)F)cc3c2n(C)c(=O)n3CC(=O)Nc2ccc(F)cc2)c(F)cc1OCc1nnc[nH]1 [SSTN-603, 2-(4-(4-((4H-1,2,4-triazol-3-yl)methoxy)-2-fluoro-5-methoxyphenyl)-3-methyl-2-oxo-6-(trifluoromethyl)-2,3-dihydro-1H-benzo[d]imidazol-1-yl)-N-(4-fluorophenyl)acetamide]	7.4 µM
2.1 µM	COc1cc(-c2cc(C(F)(F)F)cc3c2n(C)c(=O)n3CC(=O)Nc2ccc(Cl)cc2)cc(F)c1OCc1nnc[nH]1 [SSTN-489, 2-(4-(4-((4H-1,2,4-triazol-3-yl)methoxy)-3-fluoro-5-methoxyphenyl)-3-methyl-2-oxo-6-(trifluoromethyl)-2,3-dihydro-1H-benzo[d]imidazol-1-yl)-N-(4-chlorophenyl)acetamide hydrochloride]	7.9 µM
2.1 µM	COc1cc(-c2cc(C(F)(F)F)cc3c2n(C)c(=O)n3CC(=O)N(C)c2cccc(Cl)c2)cc(F)c1OCc1nnc[nH]1 [compound 448, 2-(4-(4-((4H-1,2,4-triazol-3-yl)methoxy)-3-fluoro-5-methoxyphenyl)-3-methyl-2-oxo-6-(trifluoromethyl)-2,3-dihydro-1H-benzo[d]imidazol-1-yl)-N-(3-chlorophenyl)-N-methylacetamide hydrochloride]	2.4 µM
2.8 µM	COc1cc(-c2cc(C(F)(F)F)cc3c2n(C)c(=O)n3CC(=O)N(C)c2ccc(F)cc2F)cc(F)c1OCc1nnc[nH]1 [compound 447, 2-(4-(4-((4H-1,2,4-triazol-3-yl)methoxy)-3-fluoro-5-methoxyphenyl)-3-methyl-2-oxo-6-(trifluoromethyl)-2,3-dihydro-1H-benzo[d]imidazol-1-yl)-N-(2,4-difluorophenyl)-N-methylacetamide hydrochloride]	3.3 µM
8 µM	COc1cc(-c2cc(C(F)(F)F)cc3c2n(C)c(=O)n3CC(=O)Nc2cncc(C)c2)cc(F)c1OCc1nnc[nH]1 [SSTN-502, 2-(4-(4-((4H-1,2,4-triazol-3-yl)methoxy)-3-fluoro-5-methoxyphenyl)-3-methyl-2-oxo-6-(trifluoromethyl)-2,3-dihydro-1H-benzo[d]imidazol-1-yl)-N-(5-methylpyridin-3-yl)acetamide hydrochloride]	12 µM
2.7 µM	COc1cc(-c2cc(C(F)(F)F)cc3c2n(C)c(=O)n3CC(=O)Nc2ccc(SC)cc2F)cc(F)c1OCc1nnc[nH]1 [SSTN-500, 2-(4-(4-((4H-1,2,4-triazol-3-yl)methoxy)-3-fluoro-5-methoxyphenyl)-3-methyl-2-oxo-6-(trifluoromethyl)-2,3-dihydro-1H-benzo[d]imidazol-1-yl)-N-(2-fluoro-4-(methylthio)phenyl)acetamide hydrochloride]	7.4 µM
2.9 µM	COc1cc(-c2cc(C(F)(F)F)cc3c2n(C)c(=O)n3CC(=O)N(c2ccc(F)cc2)C2CC2)cc(F)c1OCc1nnc[nH]1 [SSTN-543, 2-(4-(4-((4H-1,2,4-triazol-3-yl)methoxy)-3-fluoro-5-methoxyphenyl)-3-methyl-2-oxo-6-(trifluoromethyl)-2,3-dihydro-1H-benzo[d]imidazol-1-yl)-N-cyclopropyl-N-(4-fluorophenyl)acetamide]	4.7 µM
2.4 µM	COc1ccccc1NC(=O)Cn1c(=O)n(C)c2c(-c3cc(F)c(OCc4nnc[nH]4)c(OC)c3)cc(C(F)(F)F)cc21 [SSTN-493, 2-(4-(4-((4H-1,2,4-triazol-3-yl)methoxy)-3-fluoro-5-methoxyphenyl)-3-methyl-2-oxo-6-(trifluoromethyl)-2,3-dihydro-1H-benzo[d]imidazol-1-yl)-N-(2-methoxyphenyl)acetamide hydrochloride]	8.5 µM
7.1 µM	COc1cc(-c2cc(C(F)(F)F)cc3c2n(C)c(=O)n3CC(=O)Nc2ccc(F)cc2F)cc(F)c1OCc1nnc[nH]1 [SSTN-494, 2-(4-(4-((4H-1,2,4-triazol-3-yl)methoxy)-3-fluoro-5-methoxyphenyl)-3-methyl-2-oxo-6-(trifluoromethyl)-2,3-dihydro-1H-benzo[d]imidazol-1-yl)-N-(2,4-difluorophenyl)acetamide hydrochloride]	12.1 µM
17.1 µM	COc1cc(-c2cc(C(F)(F)F)cc3c2n(C)c(=O)n3CC(=O)Nc2cccnc2F)cc(F)c1OCc1nnc[nH]1 [SSTN-612, 2-(4-(4-((4H-1,2,4-triazol-3-yl)methoxy)-3-fluoro-5-methoxyphenyl)-3-methyl-2-oxo-6-(trifluoromethyl)-2,3-dihydro-1H-benzo[d]imidazol-1-yl)-N-(2-fluoropyridin-3-yl)acetamide]	13.2 µM
